US9492471B2, “Methods of treating a disease or disorder associated with Bruton'S Tyrosine Kinase” (Celgene Avilomics Research, Inc., priority 2013, dated 2016)
Read-outs that look alike come from different tables or passages of the source.

Tests used:
Test in all cases: HotSpot kinase profiling
Format in all cases: biochemical
RON/MST1R = molecular target: T1, RON/MST1R (Homo sapiens, UniProt Q04912)
T1 construct: purchased Reaction Biology Corp
Method in brief: (§1)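 P81 filtration radiometric readout; 2 h incubation at room temperature; 0.1% phosphoric acid wash; DMSO negative control; % inhibition, mean of replicate runs.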

EPHA1 = molecular target: T2, EPHA1 (Homo sapiens, UniProt P21709)
T2 construct: purchased Reaction Biology Corp
T2 sequence (P21709 26-976): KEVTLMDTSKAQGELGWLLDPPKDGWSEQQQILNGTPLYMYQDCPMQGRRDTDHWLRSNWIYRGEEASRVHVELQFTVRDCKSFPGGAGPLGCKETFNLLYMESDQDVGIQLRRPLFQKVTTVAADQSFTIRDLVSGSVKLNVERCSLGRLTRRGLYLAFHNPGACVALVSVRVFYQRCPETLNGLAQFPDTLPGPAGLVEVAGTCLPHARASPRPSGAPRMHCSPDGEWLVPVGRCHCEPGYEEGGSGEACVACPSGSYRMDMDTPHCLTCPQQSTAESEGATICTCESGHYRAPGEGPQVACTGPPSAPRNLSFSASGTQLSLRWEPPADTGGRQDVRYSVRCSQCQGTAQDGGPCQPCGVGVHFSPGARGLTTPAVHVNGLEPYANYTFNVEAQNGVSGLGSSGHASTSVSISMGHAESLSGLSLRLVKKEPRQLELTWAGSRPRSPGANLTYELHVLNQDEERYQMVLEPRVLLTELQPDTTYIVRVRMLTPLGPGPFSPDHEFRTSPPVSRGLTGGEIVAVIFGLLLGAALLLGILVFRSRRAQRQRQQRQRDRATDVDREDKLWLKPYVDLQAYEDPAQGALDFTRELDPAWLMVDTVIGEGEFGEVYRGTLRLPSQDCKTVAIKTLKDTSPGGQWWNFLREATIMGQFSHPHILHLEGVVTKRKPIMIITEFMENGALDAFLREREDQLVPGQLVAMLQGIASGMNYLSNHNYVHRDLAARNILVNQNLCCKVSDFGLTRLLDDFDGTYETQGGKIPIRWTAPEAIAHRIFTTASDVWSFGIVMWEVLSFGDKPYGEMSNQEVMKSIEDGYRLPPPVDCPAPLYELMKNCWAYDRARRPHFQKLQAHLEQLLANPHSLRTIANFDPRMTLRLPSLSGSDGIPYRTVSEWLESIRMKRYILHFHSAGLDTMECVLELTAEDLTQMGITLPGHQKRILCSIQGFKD
Method in brief: as §1

LCK = molecular target: T3, LCK (Homo sapiens, UniProt P06239)
T3 construct: purchased Reaction Biology Corp
Method in brief: as §1

MLK3/MAP3K11 = molecular target: T4, MLK3/MAP3K11 (Homo sapiens, UniProt Q16584)
T4 construct: purchased Reaction Biology Corp
Method in brief: as §1

P38d/MAPK13 = molecular target: T5, P38d/MAPK13 (Homo sapiens, UniProt O15264)
T5 construct: purchased Reaction Biology Corp
T5 sequence (O15264 1-365): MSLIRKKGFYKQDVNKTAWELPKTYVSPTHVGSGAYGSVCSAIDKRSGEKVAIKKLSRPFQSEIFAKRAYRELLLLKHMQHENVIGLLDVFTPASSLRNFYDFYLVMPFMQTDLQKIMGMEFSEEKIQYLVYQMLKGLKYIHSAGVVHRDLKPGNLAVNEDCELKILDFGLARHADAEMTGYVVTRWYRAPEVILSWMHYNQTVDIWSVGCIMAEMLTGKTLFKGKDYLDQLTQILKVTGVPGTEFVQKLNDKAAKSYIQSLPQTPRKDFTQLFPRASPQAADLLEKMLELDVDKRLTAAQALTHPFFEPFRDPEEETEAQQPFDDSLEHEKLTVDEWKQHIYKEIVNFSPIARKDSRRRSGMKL
Method in brief: as §1

MRCKa/CDC42BPA = molecular target: T6, MRCKa/CDC42BPA (Homo sapiens, UniProt Q5VT25)
T6 construct: purchased Reaction Biology Corp
Method in brief: as §1

BRAF = molecular target: T7, BRAF (Homo sapiens, UniProt P15056)
T7 construct: purchased Reaction Biology Corp
Method in brief: as §1

TXK = molecular target: T8, TXK (Homo sapiens, UniProt P42681)
T8 construct: purchased Reaction Biology Corp
T8 sequence (P42681 1-527): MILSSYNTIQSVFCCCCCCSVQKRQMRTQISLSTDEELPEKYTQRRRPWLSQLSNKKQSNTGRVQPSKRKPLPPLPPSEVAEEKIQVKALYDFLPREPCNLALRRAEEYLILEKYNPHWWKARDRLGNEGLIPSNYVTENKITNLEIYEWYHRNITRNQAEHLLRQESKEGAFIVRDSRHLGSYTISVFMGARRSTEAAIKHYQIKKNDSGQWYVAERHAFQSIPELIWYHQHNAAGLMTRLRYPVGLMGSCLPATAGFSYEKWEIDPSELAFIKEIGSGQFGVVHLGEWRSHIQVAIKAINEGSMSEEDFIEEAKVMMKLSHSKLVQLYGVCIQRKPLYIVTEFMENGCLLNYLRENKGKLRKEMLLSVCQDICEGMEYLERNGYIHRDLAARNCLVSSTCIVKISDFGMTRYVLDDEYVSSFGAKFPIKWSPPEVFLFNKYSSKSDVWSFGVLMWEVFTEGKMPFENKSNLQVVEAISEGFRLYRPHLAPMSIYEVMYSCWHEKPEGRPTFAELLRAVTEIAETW
Method in brief: as §1

[1] = read-out: % Enzyme Activity (relative to DMSO controls) Run 1
[2] = read-out: % Enzyme Activity (relative to DMSO controls) Run 2

T4 sequence (Q16584 whole entry): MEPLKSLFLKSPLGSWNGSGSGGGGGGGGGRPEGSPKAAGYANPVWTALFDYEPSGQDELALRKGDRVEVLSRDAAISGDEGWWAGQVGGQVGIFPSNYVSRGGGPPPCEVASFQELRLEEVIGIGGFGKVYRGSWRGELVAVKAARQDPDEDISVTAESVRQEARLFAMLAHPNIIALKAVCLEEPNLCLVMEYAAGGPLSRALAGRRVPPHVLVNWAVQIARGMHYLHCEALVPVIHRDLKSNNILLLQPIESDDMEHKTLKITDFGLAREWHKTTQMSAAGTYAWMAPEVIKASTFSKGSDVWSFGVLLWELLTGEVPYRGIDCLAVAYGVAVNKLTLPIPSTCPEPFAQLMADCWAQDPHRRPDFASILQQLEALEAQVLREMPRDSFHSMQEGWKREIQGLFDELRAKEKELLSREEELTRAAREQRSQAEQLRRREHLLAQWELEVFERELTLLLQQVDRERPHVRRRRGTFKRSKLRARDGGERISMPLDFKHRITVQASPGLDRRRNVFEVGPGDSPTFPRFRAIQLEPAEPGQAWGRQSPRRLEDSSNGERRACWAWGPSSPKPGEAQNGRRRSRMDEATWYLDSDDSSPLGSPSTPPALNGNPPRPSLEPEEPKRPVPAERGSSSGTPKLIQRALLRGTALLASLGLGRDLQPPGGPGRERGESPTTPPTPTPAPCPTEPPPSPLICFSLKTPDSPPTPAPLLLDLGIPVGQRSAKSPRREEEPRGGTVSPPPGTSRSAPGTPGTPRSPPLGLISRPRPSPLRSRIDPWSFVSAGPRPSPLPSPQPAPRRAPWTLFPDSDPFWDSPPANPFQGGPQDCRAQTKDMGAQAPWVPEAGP
T6 sequence (Q5VT25 whole entry): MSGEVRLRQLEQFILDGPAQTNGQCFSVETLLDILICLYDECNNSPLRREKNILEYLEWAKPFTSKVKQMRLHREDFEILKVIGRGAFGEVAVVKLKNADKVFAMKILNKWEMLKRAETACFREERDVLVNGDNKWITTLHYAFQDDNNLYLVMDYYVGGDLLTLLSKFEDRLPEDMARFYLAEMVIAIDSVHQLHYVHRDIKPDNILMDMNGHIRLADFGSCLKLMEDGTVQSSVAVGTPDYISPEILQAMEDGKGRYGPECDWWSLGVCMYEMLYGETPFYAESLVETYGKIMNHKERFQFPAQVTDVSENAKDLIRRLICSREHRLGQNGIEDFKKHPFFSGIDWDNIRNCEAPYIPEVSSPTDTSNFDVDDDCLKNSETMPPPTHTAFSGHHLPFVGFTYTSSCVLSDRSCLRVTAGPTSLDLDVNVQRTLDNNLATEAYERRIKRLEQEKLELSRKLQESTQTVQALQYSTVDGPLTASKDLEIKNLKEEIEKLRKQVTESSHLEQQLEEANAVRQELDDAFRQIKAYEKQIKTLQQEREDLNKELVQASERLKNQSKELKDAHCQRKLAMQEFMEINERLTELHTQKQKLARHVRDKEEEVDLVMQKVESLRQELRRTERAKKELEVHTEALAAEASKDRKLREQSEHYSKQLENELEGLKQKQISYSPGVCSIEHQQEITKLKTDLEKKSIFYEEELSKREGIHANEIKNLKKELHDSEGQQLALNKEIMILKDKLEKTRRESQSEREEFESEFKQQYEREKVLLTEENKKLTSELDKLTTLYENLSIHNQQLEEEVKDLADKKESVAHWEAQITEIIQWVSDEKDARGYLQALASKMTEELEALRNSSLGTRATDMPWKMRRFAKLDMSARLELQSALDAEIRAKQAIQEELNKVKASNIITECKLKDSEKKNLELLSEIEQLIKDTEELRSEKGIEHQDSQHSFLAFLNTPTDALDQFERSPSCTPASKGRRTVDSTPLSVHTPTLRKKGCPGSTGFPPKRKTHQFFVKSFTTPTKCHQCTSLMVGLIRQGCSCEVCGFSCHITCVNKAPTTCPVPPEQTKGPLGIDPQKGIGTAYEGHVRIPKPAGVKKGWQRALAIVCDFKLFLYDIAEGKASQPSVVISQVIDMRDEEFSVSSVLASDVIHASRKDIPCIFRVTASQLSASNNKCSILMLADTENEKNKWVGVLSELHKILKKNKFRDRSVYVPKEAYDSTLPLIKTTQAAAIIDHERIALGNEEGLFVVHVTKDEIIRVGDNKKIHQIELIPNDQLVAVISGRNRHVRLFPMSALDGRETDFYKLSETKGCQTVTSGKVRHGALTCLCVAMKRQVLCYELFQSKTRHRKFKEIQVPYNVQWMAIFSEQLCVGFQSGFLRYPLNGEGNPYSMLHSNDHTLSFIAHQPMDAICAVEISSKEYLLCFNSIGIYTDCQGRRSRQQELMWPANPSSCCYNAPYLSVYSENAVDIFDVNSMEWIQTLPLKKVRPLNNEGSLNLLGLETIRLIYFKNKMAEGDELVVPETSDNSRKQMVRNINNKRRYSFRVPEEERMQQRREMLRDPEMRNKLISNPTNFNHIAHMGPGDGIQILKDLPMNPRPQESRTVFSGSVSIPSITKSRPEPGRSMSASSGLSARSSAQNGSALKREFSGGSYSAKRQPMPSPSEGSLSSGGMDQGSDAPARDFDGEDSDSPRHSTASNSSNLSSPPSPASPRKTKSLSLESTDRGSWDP
T1 sequence (Q04912 25-1400): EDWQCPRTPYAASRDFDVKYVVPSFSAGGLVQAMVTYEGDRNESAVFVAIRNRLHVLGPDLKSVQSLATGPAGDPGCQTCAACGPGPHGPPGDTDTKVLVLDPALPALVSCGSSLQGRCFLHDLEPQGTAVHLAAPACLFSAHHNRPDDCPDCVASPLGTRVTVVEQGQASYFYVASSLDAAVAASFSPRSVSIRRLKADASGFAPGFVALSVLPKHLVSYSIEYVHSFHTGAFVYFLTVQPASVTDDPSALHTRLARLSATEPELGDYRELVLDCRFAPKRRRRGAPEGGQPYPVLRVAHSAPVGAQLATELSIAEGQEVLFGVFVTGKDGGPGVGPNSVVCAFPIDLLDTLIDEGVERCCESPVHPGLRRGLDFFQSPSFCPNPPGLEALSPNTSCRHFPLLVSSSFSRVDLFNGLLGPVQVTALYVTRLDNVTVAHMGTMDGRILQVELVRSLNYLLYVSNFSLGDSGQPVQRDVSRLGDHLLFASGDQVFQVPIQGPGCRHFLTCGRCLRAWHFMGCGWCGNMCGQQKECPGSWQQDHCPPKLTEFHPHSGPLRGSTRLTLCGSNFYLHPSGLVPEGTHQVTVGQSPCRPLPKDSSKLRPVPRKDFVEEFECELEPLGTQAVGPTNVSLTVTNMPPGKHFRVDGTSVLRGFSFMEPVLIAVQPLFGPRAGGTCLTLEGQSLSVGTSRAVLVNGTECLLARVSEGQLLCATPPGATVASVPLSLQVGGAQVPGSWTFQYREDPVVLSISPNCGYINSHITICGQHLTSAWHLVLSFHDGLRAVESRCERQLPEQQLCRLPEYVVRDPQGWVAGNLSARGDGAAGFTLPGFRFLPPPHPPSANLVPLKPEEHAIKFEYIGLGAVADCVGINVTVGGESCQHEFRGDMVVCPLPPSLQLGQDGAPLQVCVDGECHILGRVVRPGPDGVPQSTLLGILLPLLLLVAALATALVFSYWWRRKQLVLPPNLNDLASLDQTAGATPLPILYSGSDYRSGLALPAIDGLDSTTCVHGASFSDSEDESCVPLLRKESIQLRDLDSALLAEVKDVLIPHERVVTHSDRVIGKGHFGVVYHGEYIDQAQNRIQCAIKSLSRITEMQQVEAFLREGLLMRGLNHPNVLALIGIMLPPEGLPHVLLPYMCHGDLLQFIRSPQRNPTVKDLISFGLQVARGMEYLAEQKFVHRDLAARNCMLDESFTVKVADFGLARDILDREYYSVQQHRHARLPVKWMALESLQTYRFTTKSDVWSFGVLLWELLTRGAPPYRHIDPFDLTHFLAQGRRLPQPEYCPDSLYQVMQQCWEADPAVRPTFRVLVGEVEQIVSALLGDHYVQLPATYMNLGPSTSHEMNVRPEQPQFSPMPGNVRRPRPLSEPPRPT
T7 sequence (P15056 whole entry): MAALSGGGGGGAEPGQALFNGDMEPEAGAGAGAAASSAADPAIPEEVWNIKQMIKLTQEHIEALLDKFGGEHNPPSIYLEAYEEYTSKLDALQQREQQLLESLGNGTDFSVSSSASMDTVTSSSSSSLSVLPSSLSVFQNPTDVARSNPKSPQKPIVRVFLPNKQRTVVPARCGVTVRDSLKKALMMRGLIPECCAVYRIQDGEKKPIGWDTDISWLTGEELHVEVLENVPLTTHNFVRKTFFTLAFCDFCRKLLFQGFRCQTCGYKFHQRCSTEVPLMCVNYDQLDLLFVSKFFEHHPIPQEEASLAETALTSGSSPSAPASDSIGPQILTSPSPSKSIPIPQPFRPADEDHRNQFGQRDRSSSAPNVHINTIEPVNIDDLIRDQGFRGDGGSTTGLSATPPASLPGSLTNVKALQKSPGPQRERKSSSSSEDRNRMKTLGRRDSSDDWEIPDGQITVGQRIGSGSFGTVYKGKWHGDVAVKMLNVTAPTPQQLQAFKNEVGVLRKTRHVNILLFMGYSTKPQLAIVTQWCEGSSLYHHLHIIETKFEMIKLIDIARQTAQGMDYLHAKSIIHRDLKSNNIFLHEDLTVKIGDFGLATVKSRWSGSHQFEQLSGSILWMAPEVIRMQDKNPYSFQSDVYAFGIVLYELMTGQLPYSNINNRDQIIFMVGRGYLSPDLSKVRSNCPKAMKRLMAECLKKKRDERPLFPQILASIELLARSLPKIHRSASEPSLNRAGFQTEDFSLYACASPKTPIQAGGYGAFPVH

With `C=CC(=O)Nc1cccc(Nc2nc(Nc3ccc(OCCOC)c(F)c3)ncc2F)c1` [Compound 2] the inhibition at 3 µM (RON/MST1R) was -2.24%, the remaining activity at 3 µM (RON/MST1R; [1]) was 103% and the remaining activity at 3 µM (RON/MST1R; [2]) was 101%. The inhibition at 3 µM (EPHA1) was -0.24%, the remaining activity at 3 µM (EPHA1; [1]) was 99.5% and the remaining activity at 3 µM (EPHA1; [2]) was 101%. For the same compound, the inhibition at 3 µM (LCK) was 36%, the remaining activity at 3 µM (LCK; [1]) was 64.7% and the remaining activity at 3 µM (LCK; [2]) was 63.4%. It also gave an inhibition at 3 µM (MLK3/MAP3K11) of 73.4%, a remaining activity at 3 µM (MLK3/MAP3K11; [1]) of 27.9% and a remaining activity at 3 µM (MLK3/MAP3K11; [2]) of 25.2%. For the same compound, the inhibition at 3 µM (P38d/MAPK13) was 0.64%, the remaining activity at 3 µM (P38d/MAPK13; [1]) was 98.9% and the remaining activity at 3 µM (P38d/MAPK13; [2]) was 99.8%. It also gave an inhibition at 3 µM (MRCKa/CDC42BPA) of -14.3%, a remaining activity at 3 µM (MRCKa/CDC42BPA; [1]) of 114% and a remaining activity at 3 µM (MRCKa/CDC42BPA; [2]) of 115%. The inhibition at 3 µM (BRAF) was 0.04%, the remaining activity at 3 µM (BRAF; [1]) was 101% and the remaining activity at 3 µM (BRAF; [2]) was 99.1%. It also gave an inhibition at 3 µM (TXK) of 99.8%, a remaining activity at 3 µM (TXK; [1]) of 0.42% and a remaining activity at 3 µM (TXK; [2]) of 0.03%.
